Experimental findings from ChEMBL document CHEMBL2074520, “Characterization of the high-affinity monocarboxylate transporter MCT2 in Xenopus laevis oocytes” (Biochem J, 1999) are described below.

Data set [1] has as its target T1, Monocarboxylate transporter 1 (Rattus norvegicus) (UniProt P53987).
T1 sequence (whole entry): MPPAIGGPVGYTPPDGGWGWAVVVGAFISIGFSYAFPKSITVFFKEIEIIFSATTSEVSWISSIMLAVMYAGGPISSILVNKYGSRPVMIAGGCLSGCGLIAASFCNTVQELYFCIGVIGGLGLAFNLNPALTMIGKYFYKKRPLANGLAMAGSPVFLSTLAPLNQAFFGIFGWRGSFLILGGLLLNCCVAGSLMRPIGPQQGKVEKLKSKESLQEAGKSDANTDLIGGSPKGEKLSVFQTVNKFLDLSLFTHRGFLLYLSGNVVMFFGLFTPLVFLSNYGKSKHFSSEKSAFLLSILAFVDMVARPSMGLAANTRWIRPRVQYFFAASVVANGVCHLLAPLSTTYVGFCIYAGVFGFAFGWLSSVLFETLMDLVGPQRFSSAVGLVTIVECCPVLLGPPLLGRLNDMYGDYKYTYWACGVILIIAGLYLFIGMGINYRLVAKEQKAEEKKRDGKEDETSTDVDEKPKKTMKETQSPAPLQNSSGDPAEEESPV
Put plainly: (§1) TP_TRANSPORTER: inhibition of lactate uptake in Xenopus laevis oocytes. The class given is functional, cell-based. Further details: concentration or dose not given beside the values. Particulars: Oocyte.

Data set [2] concerns the target T2, Monocarboxylate transporter 2 (Rattus norvegicus) (UniProt Q63344).
T2 sequence (whole entry): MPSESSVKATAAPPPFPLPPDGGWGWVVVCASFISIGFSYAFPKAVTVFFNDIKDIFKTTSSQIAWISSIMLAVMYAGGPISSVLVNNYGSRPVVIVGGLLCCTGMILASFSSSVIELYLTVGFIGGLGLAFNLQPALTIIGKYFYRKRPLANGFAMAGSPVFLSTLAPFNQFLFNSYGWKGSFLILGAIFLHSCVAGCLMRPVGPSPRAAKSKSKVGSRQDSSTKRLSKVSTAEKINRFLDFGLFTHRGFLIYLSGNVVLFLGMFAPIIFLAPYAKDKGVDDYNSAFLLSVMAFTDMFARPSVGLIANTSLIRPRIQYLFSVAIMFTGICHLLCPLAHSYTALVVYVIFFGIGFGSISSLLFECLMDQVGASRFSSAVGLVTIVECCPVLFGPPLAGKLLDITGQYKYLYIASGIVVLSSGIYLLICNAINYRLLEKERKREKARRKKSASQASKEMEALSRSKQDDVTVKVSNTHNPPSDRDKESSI
Described as §1. The class given is functional, cell-based. Further details: concentration or dose not given beside the values. Particulars: Oocyte.

The target of data set [3] is T3, Monocarboxylate transporter 2 (Rattus norvegicus, UniProt Q63344).
T3 sequence (Q63344 whole entry): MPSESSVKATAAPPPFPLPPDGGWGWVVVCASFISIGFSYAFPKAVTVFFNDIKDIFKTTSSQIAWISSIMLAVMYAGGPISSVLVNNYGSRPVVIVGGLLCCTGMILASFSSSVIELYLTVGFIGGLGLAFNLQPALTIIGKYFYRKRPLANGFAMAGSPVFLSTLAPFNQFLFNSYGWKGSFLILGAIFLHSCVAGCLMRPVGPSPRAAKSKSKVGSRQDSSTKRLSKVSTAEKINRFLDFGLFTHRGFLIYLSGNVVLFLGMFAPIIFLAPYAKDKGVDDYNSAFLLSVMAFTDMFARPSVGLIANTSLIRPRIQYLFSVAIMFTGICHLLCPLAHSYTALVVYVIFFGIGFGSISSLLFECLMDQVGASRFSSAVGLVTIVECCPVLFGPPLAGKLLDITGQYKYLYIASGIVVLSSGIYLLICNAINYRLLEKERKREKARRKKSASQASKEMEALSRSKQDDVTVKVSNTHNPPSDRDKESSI
Described as §1. The class given is functional, cell-based, Oocyte.

Data set [4] addresses T4, Monocarboxylate transporter 1 (Rattus norvegicus, UniProt P53987).
T4 sequence (P53987 whole entry): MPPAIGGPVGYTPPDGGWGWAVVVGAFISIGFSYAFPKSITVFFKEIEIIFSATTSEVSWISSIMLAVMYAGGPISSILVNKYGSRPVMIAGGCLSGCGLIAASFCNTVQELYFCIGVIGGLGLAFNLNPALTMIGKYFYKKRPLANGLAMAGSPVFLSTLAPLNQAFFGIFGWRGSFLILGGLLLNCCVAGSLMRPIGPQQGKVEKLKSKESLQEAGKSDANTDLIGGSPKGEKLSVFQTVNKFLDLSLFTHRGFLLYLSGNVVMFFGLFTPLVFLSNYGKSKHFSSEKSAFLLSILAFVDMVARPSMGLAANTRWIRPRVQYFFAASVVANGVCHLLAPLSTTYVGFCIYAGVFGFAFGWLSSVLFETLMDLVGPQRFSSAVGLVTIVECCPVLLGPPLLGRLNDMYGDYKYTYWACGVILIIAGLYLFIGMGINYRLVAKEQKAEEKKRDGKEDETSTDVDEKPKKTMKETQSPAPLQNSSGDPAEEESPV
Described as §1. The class given is functional, cell-based, Oocyte.

Data set [5] addresses Monocarboxylate transporter 1 (Rattus norvegicus) (UniProt P53987). The description is as §1. The note with it: Oocyte. The class given is functional, cell-based. Further details: concentration or dose not given beside the values. The source holds these as a separate data set.
Data set [6] deals with Monocarboxylate transporter 2 (Rattus norvegicus) (UniProt Q63344). The data set is described as §1. The class given is functional, cell-based. Further details: concentration or dose not given beside the values. Particulars: Oocyte. The source holds these as a separate data set.
Compound in data set [7]: C[C@@H](O)C(=O)O
The description is as §1. The class given is functional, cell-based. The note with it: Oocyte.

Regarding `CC(=O)Oc1ccccc1O`, the figures for the Activity in data set [1] and in data set [2] were 92% and 105%, respectively.
In the same order, the values of `CCCCCC#CCC#CCC#CCC#CCCCC(=O)O` are 117% and 125%.
Turning to `CCCN(CCC)S(=O)(=O)c1ccc(C(=O)O)cc1`, the Activity in data set [1] was 110%; in data set [2], 88%.
In the same order, the values of `O=C(O)C(O)c1ccccc1` (stereo not drawn) are 97% and 117%.
In the case of `O=C(O)CC12CC3CC(CC(C3)C1)C2`, the results for the Activity in data set [1] and in data set [2] were 96% and 113%, respectively.
As for `O=C(O)c1c2ccccc2cc2ccccc12`, the Activity was 102% in data set [1] and 104% in data set [2].
In the same order, the values of `O=C(O)c1cc([N+](=O)[O-])ccc1NCCCc1ccccc1` are 54% and 25%.
In the same order, the values of `O=C(O)c1ccc(-c2ccccc2)cc1` are 88% and 74%.
On to `O=C(O)c1cccnc1Nc1cccc(C(F)(F)F)c1`, for which the Activity in data set [1] is 36%; in data set [2], 14%.
In the same order, the values of `O=[N+]([O-])c1ccc(/C=C/c2ccc([N+](=O)[O-])cc2S(=O)(=O)O)c(S(=O)(=O)O)c1` are 112% and 119%.
In the same order, the values of `c1ccc(CSSCc2ccccc2)cc1` are 99% and 44%.
What is called Ki is a measure of affinity in units of concentration, obtained from inhibition or displacement. The molecule `CC(O)CC(=O)O` (racemic) [3-HYDROXYBUTYRIC ACID, (+/-)-] displayed a Ki in data set [3] of 1200 µM.
On the same count and under the same terms, as for `CC(C)CC(=O)C(=O)O` [2-Oxoisohexanoate], the figure is 100 µM; as for `CC(C)C(=O)C(=O)O` [2-Oxoisovalerate], 300 µM.
`CC(=O)CC(=O)O` [ACETOACETIC ACID] showed a Ki in data set [3] of 800 µM.
One may read the IC50 as the midpoint of a concentration-inhibition curve. Take `CCc1oc2ccccc2c1C(=O)c1cc(Br)c(O)c(Br)c1` [BENZBROMARONE]: the results for the IC50 in data set [4] and in data set [3] were 22 µM and 9 µM, respectively. Also, the Activity in data set [1] is 19%; in data set [2], 12%.
In the same order, the values of `O=C(CCc1ccc(O)cc1)c1c(O)cc(O)cc1O` [PHLORETIN] are 28 µM, 14 µM, 14% and 3%.
For `CC(=O)C(=O)O` [PYRUVATE], the Ki in data set [3] was determined as 80 µM.
With `O=c1c(O)c(-c2ccc(O)c(O)c2)oc2cc(O)cc(O)c12` [QUERCETIN], the half-inhibitory concentration (IC50) in data set [4] worked out at 14 µM; in data set [3], 5 µM. Also, the figures for the Activity in data set [1] and in data set [2] were 11% and 17%, respectively.
Consider `N#C/C(=C\c1ccc(O)cc1)C(=O)O` [alpha-CYANO-4-HYDROXYCINNAMIC ACID], for which the IC50 worked out at 425 µM in data set [4] and 24 µM in data set [3]. In addition, the figures for the Activity in data set [1] and in data set [2] were 74.4% and 34%, respectively.
On to MERCURIC CHLORIDE, for which the figures for the Activity in data set [5] and in data set [6] were 37% and 54%, respectively.
In the same order, the values of p-Chloromercuribenzenesulfonate are 9% and 118%.

B1: Monocarboxylate transporter 2 (Rattus norvegicus), Q63344 (protein)
chain: MPSESSVKATAAPPPFPLPPDGGWGWVVVCASFISIGFSYAFPKAVTVFFNDIKDIFKTTSSQIAWISSIMLAVMYAGGPISSVLVNNYGSRPVVIVGGLLCCTGMILASFSSSVIELYLTVGFIGGLGLAFNLQPALTIIGKYFYRKRPLANGFAMAGSPVFLSTLAPFNQFLFNSYGWKGSFLILGAIFLHSCVAGCLMRPVGPSPRAAKSKSKVGSRQDSSTKRLSKVSTAEKINRFLDFGLFTHRGFLIYLSGNVVLFLGMFAPIIFLAPYAKDKGVDDYNSAFLLSVMAFTDMFARPSVGLIANTSLIRPRIQYLFSVAIMFTGICHLLCPLAHSYTALVVYVIFFGIGFGSISSLLFECLMDQVGASRFSSAVGLVTIVECCPVLFGPPLAGKLLDITGQYKYLYIASGIVVLSSGIYLLICNAINYRLLEKERKREKARRKKSASQASKEMEALSRSKQDDVTVKVSNTHNPPSDRDKESSI
As usually defined, the Km is the substrate concentration at which the rate is half of its maximum. Take B1: in data set [7], the Michaelis constant (Km) turned out to be 740 µM.
